Earlier results on 1 compound are cited in patent US4451566A, “Methods and apparatus for enzymatically producing ethanol” (priority 1981, dated 1984).

In this data set the test system is Glucokinase (2.7.1.2), present in liver. As to conditions: read-out: KM for d-glucose, phosphorylation of d-glucose with ATP as phosphate donor.

With `OC[C@H]1OC(O)[C@H](O)[C@@H](O)[C@@H]1O` (stereo partly drawn) [d-glucose], the Km – broadly, the concentration of substrate that gives half-maximal velocity – is 100 mM.
